Test results: ChEMBL document CHEMBL4251578, “Design, synthesis and biological evaluation of novel 2-aminobenzamides containing dithiocarbamate moiety as histone deacetylase inhibitors and potent antitumor agents” (Eur J Med Chem, 2018)
Activity calls are given as the source filed them. No cut-off for these calls is given here.

Columns and labels:
SMMC-7721 [1] = experiment: Cell cycle arrest in human SMMC7721 cells assessed as accumulation of cells at G2/M phase at 0.125 umol/L after 72 hrs by propidium iodide staining-based flow cytometric analysis (reference value: 14.14%); format: functional
SMMC-7721 [2] = experiment: Induction of apoptosis in human SMMC7721 cells assessed as viable cells at 0.125 umol/L after 72 hrs by Alexa Fluor 488 Annexin/propidium iodide staining-based flow cytometric analysis (reference value: 97.14%); format: functional; details: SMMC-7721, 72 h, read-out: Activity
SMMC-7721 [3] = experiment: Induction of apoptosis in human SMMC7721 cells assessed as necrotic cells at 1 umol/L after 72 hrs by Alexa Fluor 488 Annexin/propidium iodide staining-based flow cytometric analysis (reference value: 2.48%); format: functional
HeLa [4] = experiment: Antiproliferative activity against human HeLa cells after 72 hrs by CCK-8 assay; format: functional, cell-based
SMMC-7721 [5] = experiment: Induction of apoptosis in human SMMC7721 cells assessed as late apoptotic cells at 1 umol/L after 72 hrs by Alexa Fluor 488 Annexin/propidium iodide staining-based flow cytometric analysis (reference value: 0.29%); format: functional
HeLa [6] = experiment: Antiproliferative activity against human HeLa cells at 2 uM after 72 hrs by CCK-8 assay relative to control; format: functional
SMMC-7721 [7] = experiment: Induction of apoptosis in human SMMC7721 cells assessed as early apoptotic cells at 1 umol/L after 72 hrs by Alexa Fluor 488 Annexin/propidium iodide staining-based flow cytometric analysis (reference value: 0.09%); format: functional
SMMC-7721 [8] = experiment: Induction of apoptosis in human SMMC7721 cells assessed as early apoptotic cells at 4 umol/L after 72 hrs by Alexa Fluor 488 Annexin/propidium iodide staining-based flow cytometric analysis (reference value: 0.09%); format: functional
MGC-803 [9] = experiment: Antiproliferative activity against human MGC803 cells at 8 uM after 72 hrs by CCK-8 assay relative to control; format: functional; details: MGC-803, 72 h
SMMC-7721 [10] = experiment: Induction of apoptosis in human SMMC7721 cells assessed as necrotic cells at 0.125 umol/L after 72 hrs by Alexa Fluor 488 Annexin/propidium iodide staining-based flow cytometric analysis (reference value: 2.48%); format: functional
SMMC-7721 [11] = experiment: Induction of apoptosis in human SMMC7721 cells assessed as early apoptotic cells at 0.125 umol/L after 72 hrs by Alexa Fluor 488 Annexin/propidium iodide staining-based flow cytometric analysis (reference value: 0.09%); format: functional
MGC-803 [12] = experiment: Antiproliferative activity against human MGC803 cells at 2 uM after 72 hrs by CCK-8 assay relative to control; format: functional; details: MGC-803, 72 h
SMMC-7721 [13] = experiment: Induction of apoptosis in human SMMC7721 cells assessed as necrotic cells at 4 umol/L after 72 hrs by Alexa Fluor 488 Annexin/propidium iodide staining-based flow cytometric analysis (reference value: 2.48%); format: functional
A-375 [14] = experiment: Antiproliferative activity against human A375 cells after 72 hrs by CCK-8 assay; format: functional, cell-based; details: A-375, 72 h
SMMC-7721 [15] = experiment: Cell cycle arrest in human SMMC7721 cells assessed as accumulation of cells at S phase at 1 umol/L after 72 hrs by propidium iodide staining-based flow cytometric analysis (reference value: 5.21%); format: functional
SMMC-7721 [16] = experiment: Cell cycle arrest in human SMMC7721 cells assessed as accumulation of cells at S phase at 0.125 umol/L after 72 hrs by propidium iodide staining-based flow cytometric analysis (reference value: 5.21%); format: functional
SMMC-7721 [17] = experiment: Induction of apoptosis in human SMMC7721 cells assessed as viable cells at 1 umol/L after 72 hrs by Alexa Fluor 488 Annexin/propidium iodide staining-based flow cytometric analysis (reference value: 97.14%); format: functional; details: SMMC-7721, 72 h, read-out: Activity
SMMC-7721 [18] = experiment: Cell cycle arrest in human SMMC7721 cells assessed as accumulation of cells at S phase at 4 umol/L after 72 hrs by propidium iodide staining-based flow cytometric analysis (reference value: 5.21%); format: functional
SMMC-7721 [19] = experiment: Inhibition of colony formation in human SMMC7721 cells after 7 days by crystal violet staining-based assay; format: functional, cell-based
SMMC-7721 [20] = experiment: Cell cycle arrest in human SMMC7721 cells assessed as accumulation of cells at G2/M phase at 4 umol/L after 72 hrs by propidium iodide staining-based flow cytometric analysis (reference value: 14.14%); format: functional
NCI-H1299 = experiment: Antiproliferative activity against human NCI-H1299 cells after 72 hrs by CCK-8 assay; format: functional, cell-based; details: NCI-H1299, 72 h
SMMC-7721 [21] = experiment: Induction of apoptosis in human SMMC7721 cells assessed as late apoptotic cells at 4 umol/L after 72 hrs by Alexa Fluor 488 Annexin/propidium iodide staining-based flow cytometric analysis (reference value: 0.29%); format: functional
A-375 [22] = experiment: Antiproliferative activity against human A375 cells at 8 uM after 72 hrs by CCK-8 assay relative to control; format: functional; details: A-375, 72 h
A-375 [23] = experiment: Antiproliferative activity against human A375 cells at 2 uM after 72 hrs by CCK-8 assay relative to control; format: functional; details: A-375, 72 h
SMMC-7721 [24] = experiment: Cell cycle arrest in human SMMC7721 cells assessed as accumulation of cells at G0/G1 phase at 4 umol/L after 72 hrs by propidium iodide staining-based flow cytometric analysis (reference value: 80.65%); format: functional
SMMC-7721 [25] = experiment: Antiproliferative activity against human SMMC7721 cells after 72 hrs by CCK-8 assay; format: functional, cell-based; details: SMMC-7721, 72 h
SMMC-7721 [26] = experiment: Cell cycle arrest in human SMMC7721 cells assessed as accumulation of cells at G2/M phase at 1 umol/L after 72 hrs by propidium iodide staining-based flow cytometric analysis (reference value: 14.14%); format: functional
SMMC-7721 [27] = experiment: Cell cycle arrest in human SMMC7721 cells assessed as accumulation of cells at G0/G1 phase at 1 umol/L after 72 hrs by propidium iodide staining-based flow cytometric analysis (reference value: 80.65%); format: functional
SMMC-7721 [28] = experiment: Induction of apoptosis in human SMMC7721 cells assessed as late apoptotic cells at 0.125 umol/L after 72 hrs by Alexa Fluor 488 Annexin/propidium iodide staining-based flow cytometric analysis (reference value: 0.29%); format: functional
HeLa [29] = experiment: Antiproliferative activity against human HeLa cells at 8 uM after 72 hrs by CCK-8 assay relative to control; format: functional
SMMC-7721 [30] = experiment: Induction of apoptosis in human SMMC7721 cells assessed as viable cells at 4 umol/L after 72 hrs by Alexa Fluor 488 Annexin/propidium iodide staining-based flow cytometric analysis (reference value: 97.14%); format: functional; details: SMMC-7721, 72 h, read-out: Activity
Histone deacetylase 2 = Histone deacetylase 2 (Homo sapiens, UniProt Q92769); experiment: Inhibition of human recombinant HDAC2 using Fluor de Lys-Green as substrate preincubated for 5 mins followed by substrate addition and measured after 1 hr by fluorescence assay
Chain of Histone deacetylase 2 (Q92769 whole entry): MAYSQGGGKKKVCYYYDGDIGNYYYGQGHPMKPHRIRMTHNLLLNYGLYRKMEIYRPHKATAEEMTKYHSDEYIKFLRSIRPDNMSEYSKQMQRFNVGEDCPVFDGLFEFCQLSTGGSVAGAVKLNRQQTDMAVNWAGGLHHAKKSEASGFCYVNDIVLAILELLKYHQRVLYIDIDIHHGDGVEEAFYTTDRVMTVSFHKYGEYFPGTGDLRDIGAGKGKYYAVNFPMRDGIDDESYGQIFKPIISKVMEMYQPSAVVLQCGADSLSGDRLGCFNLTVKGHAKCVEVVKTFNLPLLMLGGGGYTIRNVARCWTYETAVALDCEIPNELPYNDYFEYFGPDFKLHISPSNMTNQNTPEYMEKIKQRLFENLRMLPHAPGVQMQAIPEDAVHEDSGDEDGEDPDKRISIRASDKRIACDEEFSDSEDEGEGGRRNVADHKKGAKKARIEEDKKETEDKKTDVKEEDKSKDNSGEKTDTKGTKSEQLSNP

MGC-803 [31] = experiment: Antiproliferative activity against human MGC803 cells after 72 hrs by CCK-8 assay; format: functional, cell-based; details: MGC-803, 72 h
HCT-116 = experiment: Antiproliferative activity against human HCT116 cells after 72 hrs by CCK-8 assay; format: functional, cell-based; details: HCT-116, 72 h

SMILES | Activity (SMMC-7721 [1]) [%] | viability at 0.125 µM (SMMC-7721 [2]) [%] | Activity (SMMC-7721 [3]) [%] | IC50 (HeLa [4]) [µM] | Activity (SMMC-7721 [5]) [%] | inhibition at 2 µM (HeLa [6]) [%] | Activity (SMMC-7721 [7]) [%] | Activity (SMMC-7721 [8]) [%] | inhibition at 8 µM (MGC-803 [9]) [%] | Activity (SMMC-7721 [10]) [%] | Activity (SMMC-7721 [11]) [%] | inhibition at 2 µM (MGC-803 [12]) [%] | Activity (SMMC-7721 [13]) [%] | IC50 (A-375 [14]) [µM] | Activity (SMMC-7721 [15]) [%] | Activity (SMMC-7721 [16]) [%] | viability at 1 µM (SMMC-7721 [17]) [%] | Activity (SMMC-7721 [18]) [%] | Activity (SMMC-7721 [20]) [%] | IC50 (NCI-H1299) [µM] | further results
Nc1ccc(F)cc1NC(=O)c1ccc(CNC(=O)/C=C/c2cccnc2)cc1 | 17.2 | 78.3 | 11.25 | 11.8 | 10.22 | 14.7 | 4.59 | 5.45 | 54.5 | 4.08 | 6.02 | 7.8 | 3.06 | 7.67 | 5.26 | 5.71 | 73.9 | 5.54 | 18.05 | 16.3 | inhibition (SMMC-7721 [19]): Active; Activity (SMMC-7721 [21]): 17.32%; inhibition at 8 µM (A-375 [22]): 54.3%; inhibition at 2 µM (A-375 [23]): 21.3%; Activity (SMMC-7721 [24]): 76.41%; IC50 (SMMC-7721 [25]): > 26 µM; Activity (SMMC-7721 [26]): 18.67%; Activity (SMMC-7721 [27]): 76.07%; Activity (SMMC-7721 [28]): 11.62%; inhibition at 8 µM (HeLa [29]): 41.4%; viability at 4 µM (SMMC-7721 [30]): 74.2%; IC50 (Histone deacetylase 2): 0.37 µM
Nc1ccccc1NC(=O)c1ccc(CNC(=O)OCc2cccnc2)cc1 [ENTINOSTAT] | 17.36 | 77.5 | 5.22 | 1.6 | 9.64 | 62.2 | 11.21 | 20.06 | 67.2 | 9.56 | 4.56 | 25.3 | 7.47 | 3.67 | 5.35 | 4.54 | 73.9 | 7.55 | 21.24 | 6.74 | IC50 (MGC-803 [31]): 4.89 µM; Activity (SMMC-7721 [21]): 15.13%; inhibition at 8 µM (A-375 [22]): 88.7%; inhibition at 2 µM (A-375 [23]): 30.2%; Activity (SMMC-7721 [24]): 71.21%; IC50 (SMMC-7721 [25]): 5.97 µM; Activity (SMMC-7721 [26]): 15.55%; IC50 (HCT-116): 0.47 µM; Activity (SMMC-7721 [27]): 79.1%; Activity (SMMC-7721 [28]): 8.41%; inhibition at 8 µM (HeLa [29]): 76.6%; viability at 4 µM (SMMC-7721 [30]): 57.3%
